{"source": "paper PMC3390971", "about": "(Clinical Cancer Research, 2010)", "key": {"HT29 cells [1]": {"test_system": "HT29 cells", "assay": "Oxygen dependence of cytotoxicity and metabolism in stirred cell suspensions", "type": "cell-based, human", "conditions": "mean ± SEM"}, "HT29 cells [2]": {"test_system": "HT29 cells", "assay": "Clonogenic cell killing in stirred single cell suspensions", "type": "cell-based, human", "conditions": "anoxia, mean ± SEM"}, "[3]": {"assay": "Mouse plasma protein binding", "type": "in vitro ADME", "conditions": "mean ± SEM"}, "[4]": {"assay": "Animal toxicity: maximum tolerated dose in mice", "type": "in vivo"}, "[5]": {"assay": "Animal toxicity: maximum tolerated dose in rats", "type": "in vivo"}, "[6]": {"test_system": "HT29, SiHa and H460 xenografts", "assay": "Excision", "type": "in vivo, CD-1 nude mice", "conditions": "three xenograft models, 75% of MTD"}, "SiHa xenografts": {"test_system": "SiHa xenografts", "assay": "SiHa xenograft tumor regrowth assay with fractionated radiation", "type": "in vivo, CD-1 nude mice", "conditions": "for Radiation-induced tumor regrowth delay: 30 min before each of 2 Gy × 8"}, "8 human tumor cell lines": {"test_system": "8 human tumor cell lines", "assay": "In vitro growth inhibition", "type": "cell-based", "conditions": "8 cell lines"}, "HT29 MCL [7]": {"test_system": "HT29 MCL"}, "[8]": {"conditions": "mouse, in vivo"}, "[9]": {"conditions": "cited from earlier work"}, "[10]": {"conditions": "cited from earlier work", "remark": "listed apart in the source"}, "[11]": {"conditions": "cited from earlier work", "remark": "listed apart in the source"}, "[12]": {"conditions": "cited from earlier work", "remark": "listed apart in the source"}, "[13]": {"assay": "Plasma pharmacokinetics in mice", "conditions": "male CD-1 nude mice, single i.p. dose at 75% of MTD"}, "HT29 MCL [14]": {"test_system": "HT29 MCL", "assay": "Diffusion in multicellular layers", "conditions": "higher than TPZ"}, "HT29 cells [15]": {"test_system": "HT29 cells", "conditions": "HT29 cell suspensions, mean ± SEM"}, "HT29 cells [16]": {"test_system": "HT29 cells", "conditions": "cited from earlier work"}, "[17]": {"conditions": "mouse; cited from earlier work"}}, "note": "“And” between values parts separate entries of the source, which are not always exact repeats. Identical values can stand only once. Like-named read-outs stand apart in the source and are kept apart here. Marks after values point to notes of the source that are not given here."}
{"smiles": "[O-][n+]1nc(CCCN2CCOCC2)[n+]([O-])c2cc3c(cc21)CCC3", "note": "[SN30000]", "values": [{"measurement": "KO2, O2 concentration to halve anoxic cytotoxic potency", "setting": "HT29 cells [1]", "value": "1140 ± 240", "unit": "nM"}, {"measurement": "γ, proportionality constant in PD model (anoxic clonogenic potency coefficient)", "setting": "HT29 cells [2]", "value": "5.34 ± 0.89 (13) ×10^−5 µM^−2"}, {"measurement": "θ, free fraction of drug in plasma in mice", "setting": "[3]", "value": "83 ± 1", "unit": "%"}, {"measurement": "MTD for bi-daily dosing for 4 consecutive days (BID1-4)", "setting": "[4]; i.p., 9 am and 3 pm, 4 consecutive days, CD-1 nude mice", "value": 237, "unit": "µmol/kg"}, {"measurement": "Maximum tolerated dose (MTD)", "setting": "[4]; single i.p. administration, male CD-1 nude mice", "value": 275, "unit": "mg/kg"}, {"measurement": "MTD (molar dose) relative to TPZ", "setting": "[4]; single i.p., male CD-1 nude mice, higher than TPZ", "value": 4.2, "unit": "fold"}, {"measurement": "MTD", "setting": "[5]; Sprague-Dawley rats, both sexes, single i.p. dose", "value": 316, "unit": "µmol/kg"}, {"measurement": "Therapeutic gain over TPZ with single dose radiation", "setting": "[6]", "value": "~3", "unit": "fold"}, {"measurement": "Radiation-induced tumor regrowth delay", "setting": "SiHa xenografts; 176 µmol/kg/dose, p=0.0058 log rank test", "value": "highly significant increases"}, {"measurement": "Activity of drug alone in tumor regrowth assay", "setting": "SiHa xenografts; 263 µmol/kg/dose, 8-dose schedule, without radiation", "value": "not significantly active"}, {"measurement": "Radiation-induced tumor regrowth delay", "setting": "SiHa xenografts; 263 µmol/kg/dose, p=0.0004 log rank test", "value": "highly significant increases"}, {"measurement": "HCR (aerobic IC50 / anoxic IC50) compared across compounds", "setting": "8 human tumor cell lines", "value": "consistently higher"}, {"measurement": "Potency under anoxia (hypoxic IC50) compared with TPZ", "setting": "8 human tumor cell lines; 4 h exposure, anoxia", "value": "consistently more potent than TPZ"}, {"measurement": "D, diffusion coefficient in HT29 MCLs and tumors", "setting": "HT29 MCL [7]", "value": "1.26 ± 0.11 (6) ×10^−6 cm^2s^−1"}, {"measurement": "i.p. bioavailability", "setting": "[8]", "value": 77, "unit": "%"}, {"measurement": "Solubility in culture medium at 37°C", "setting": "[9]", "value": "48.5 ^c mM"}, {"measurement": "E(1) One electron reduction potential", "setting": "[10]", "value": "−399 ± 8 ^c mV"}, {"measurement": "One-electron reduction potential difference (higher than TPZ)", "setting": "[10]", "value": 57, "unit": "mV"}, {"measurement": "Calculated amine pKa", "setting": "[11]", "value": "7.1 ^c"}, {"measurement": "Log P, pH 7.4 (octanol:water partition coefficient)", "setting": "[12]", "value": "0.50 ± 0.05 ^c"}, {"measurement": "AUCp∞, area under the plasma (total drug) concentration-time curve extrapolated to infinity in mice", "setting": "[13]", "value": 79, "unit": "µM·h"}, {"measurement": "t½, plasma terminal half life in mice", "setting": "[13]", "value": "32 min and 32.1 min"}, {"measurement": "DMCL relative to TPZ", "setting": "HT29 MCL [14]", "value": 3, "unit": "fold"}, {"measurement": "kmet0, first order rate constant for prodrug metabolism under anoxia", "setting": "HT29 cells [15]", "value": "1.53 ± 0.21 min^−1 and 1.53 ± 0.21 (8) min^−1"}]}
{"smiles": "Nc1n[n+]([O-])c2ccccc2[n+]1[O-]", "note": "[TPZ, tirapazamine, reference compound]", "values": [{"measurement": "γ, proportionality constant in PD model (anoxic clonogenic potency coefficient)", "setting": "HT29 cells [2]", "value": "2.41± 0.13 (72) ×10^−5 µM^−2"}, {"measurement": "MTD at 4 days", "setting": "[4]; CD-1 nu/nu, mouse, in vivo, ip", "value": 75, "unit": "µmol/kg"}, {"measurement": "MTD at 28 days", "setting": "[4]; male, CD-1 nu/nu, mouse, in vivo, ip", "value": 178, "unit": "µmol/kg"}, {"measurement": "MTD at 28 days", "setting": "[5]; both, Sprague-Dawley, rat, in vivo, ip", "value": 178, "unit": "µmol/kg"}, {"measurement": "D, diffusion coefficient in HT29 MCLs and tumors", "setting": "HT29 MCL [7]; human", "value": "0.40 ± 0.02 (12) ×10^−6 cm^2s^−1"}, {"measurement": "E(1) One electron reduction potential", "setting": "[10]", "value": "−456 ± 8 ^a mV"}, {"measurement": "Log P, pH 7.4 (octanol:water partition coefficient)", "setting": "[12]", "value": "−0.34 ± 0.02 ^a"}, {"measurement": "KO2, O2 concentration to halve anoxic cytotoxic potency", "setting": "HT29 cells [16]", "value": "1.21 ± 0.09 ^d µM"}, {"measurement": "θ, free fraction of drug in plasma in mice", "setting": "[17]", "value": "100 ± 5.3 ^f %"}]}
